In patent US11098063B2, “Diazabicyclic substituted imidazopyrimidines and their use for the treatment of breathing disorders” (Bayer Aktiengesellschaft, priority 2017, dated 2021):

Tests used:
[1] = molecular target: human TASK-1 (Homo sapiens (Human), UniProt O14649); experiment: Inhibition of recombinant TASK-1 in stably transfected CHO cells (voltage-sensitive dye, KCl depolarization); assay type: cell-based; details: depolarization by 40 mM potassium chloride
Experimental: (§1) B-2. Inhibition of Recombinant TASK-1 and TASK-3 In Vitro
(§2) The investigations on the inhibition of the recombinant TASK-1 and TASK-3 channels were conducted using stably transfected CHO cells. The compounds according to the invention were tested in this case by application of 40 mM potassium chloride in the presence of a voltage-sensitive dye according to the method described in detail in the following references [Whiteaker et al., Validation of FLIPR membrane potential dye for high-throughput screening of potassium channel modulators, J. Biomol. Screen. 6 (5), 305-312 (2001); Molecular Devices FLIPR Application Note: Measuring membrane potential using the FLIPR® membrane potential assay kit on Fluorometric Imaging Plate Reader (FLIPR®) systems, http://www.moleculardevices.com/reagents-supplies/assay-kits/ion-channels/flipr-membrane-potential-assay-kits]. The activity of the test substances was determined as their ability to inhibit a depolarization induced in the recombinant cells by 40 mM potassium chloride. The concentration which can block half of this depolarization is referred to as IC50.

[2] = molecular target: human TASK-3 (Homo sapiens (Human), UniProt Q9NPC2); experiment: Inhibition of recombinant TASK-3 in stably transfected CHO cells (voltage-sensitive dye, KCl depolarization); assay type: cell-based; details: depolarization by 40 mM potassium chloride
Experimental: as §1, §2

human TASK-3, sequence (Q9NPC2 whole entry): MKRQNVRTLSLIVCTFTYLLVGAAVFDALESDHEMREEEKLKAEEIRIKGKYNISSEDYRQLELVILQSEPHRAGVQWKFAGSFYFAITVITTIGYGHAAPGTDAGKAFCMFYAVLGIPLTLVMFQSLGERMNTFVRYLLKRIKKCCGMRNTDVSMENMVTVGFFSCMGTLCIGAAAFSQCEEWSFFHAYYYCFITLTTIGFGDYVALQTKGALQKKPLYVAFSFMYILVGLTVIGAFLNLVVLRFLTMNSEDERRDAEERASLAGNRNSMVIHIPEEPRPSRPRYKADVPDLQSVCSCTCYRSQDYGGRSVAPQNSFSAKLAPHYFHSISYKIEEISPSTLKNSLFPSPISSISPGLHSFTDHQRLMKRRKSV
human TASK-1, sequence (O14649 whole entry): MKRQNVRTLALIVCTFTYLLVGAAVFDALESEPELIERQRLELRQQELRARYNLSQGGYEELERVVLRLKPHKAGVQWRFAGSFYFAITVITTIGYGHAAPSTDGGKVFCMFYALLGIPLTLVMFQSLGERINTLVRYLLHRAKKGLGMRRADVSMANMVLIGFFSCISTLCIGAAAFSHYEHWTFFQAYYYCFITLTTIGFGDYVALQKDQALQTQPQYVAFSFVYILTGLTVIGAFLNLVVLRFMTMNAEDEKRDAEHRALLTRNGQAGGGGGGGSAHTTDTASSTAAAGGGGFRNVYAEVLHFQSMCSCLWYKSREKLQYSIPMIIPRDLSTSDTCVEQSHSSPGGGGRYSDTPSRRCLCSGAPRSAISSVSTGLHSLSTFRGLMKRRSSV

Structure (SMILES) | IC50 [1] | IC50 [2]
O=C(OC1CCCCC1)N1C2CCC1CN(Cc1c(-c3ccc(Cl)cc3)nc3ncccn13)C2 [Example 128, cyclohexyl 3-{[2-(4-chlorophenyl)imidazo[1,2-a]pyrimidin-3-yl]methyl}-3,8-diazabicyclo[3.2.1]octane-8-carboxylate] | 2000 nM | 110 nM
O=C(N1CCCCC1)N1C2CCC1CN(Cc1c(-c3ccc(Cl)cc3)nc3ncccn13)C2 [Example 116, (3-{[2-(4-chlorophenyl)imidazo[1,2-a]pyrimidin-3-yl]methyl}-3,8-diazabicyclo[3.2.1]oct-8-yl)(piperidin-1-yl)methanone] | 2700 nM | 65 nM
COc1cccc(C(=O)N2CC3CCC2CN3Cc2c(-c3ccc(Cl)cc3)nc3ncccn23)c1 (centres unmarked) [Example 38] | 9600 nM | 320 nM
O=C(Nc1c(Cl)cccc1Cl)N1C2CCC1CN(Cc1c(-c3ccc(Cl)cc3)nc3ncccn13)C2 [Example 91, 3-{[2-(4-chlorophenyl)imidazo[1,2-a]pyrimidin-3-yl]methyl}-N-(2,6-dichlorophenyl)-3,8-diazabicyclo[3.2.1]octane-8-carboxamide] | 20000 nM | 410 nM
COc1cccc(C(=O)N2CC3CCC2CN3Cc2c(-c3ccc(Cl)cc3)nc3ncccn23)c1 (centres unmarked) [Example 43] | 1000 nM | 320 nM
O=C(Nc1cc(C(F)(F)F)ccc1Cl)N1C2CCC1CN(Cc1c(-c3ccc(Cl)cc3)nc3ncccn13)C2 [Example 97, 3-{[2-(4-chlorophenyl)imidazo[1,2-a]pyrimidin-3-yl]methyl}-N-[2-chloro-5-(trifluoromethyl)phenyl]-3,8-diazabicyclo[3.2.1]octane-8-carboxamide] | 31000 nM | 450 nM
CNc1cccc(C(=O)N2C3CCC2CN(Cc2c(-c4ccc(C(C)C)cc4)nc4ncccn24)C3)n1 [Example 62] | 6900 nM | 70 nM
O=C(Nc1ccc(F)cc1F)N1C2CCC1CN(Cc1c(-c3ccc(Cl)cc3)nc3ncccn13)C2 [Example 85, 3-{[2-(4-Chlorophenyl)imidazo[1,2-a]pyrimidin-3-yl]methyl}-N-(2,4-difluorophenyl)-3,8-diazabicyclo[3.2.1]octane-8-carboxamide] | 30000 nM | 1000 nM
O=C(c1ncoc1C1CC1)N1C2COCC1CN(Cc1c(-c3ccc(Cl)cc3)nc3ncccn13)C2 [Example 46] | 7600 nM | 140 nM
COc1cccc(CN(C)C(=O)N2C3CCC2CN(Cc2c(-c4ccc(Cl)cc4)nc4ncccn24)C3)c1 [Example 121, 3-{[2-(4-chlorophenyl)imidazo[1,2-a]pyrimidin-3-yl]methyl}-N-(3-methoxybenzyl)-N-methyl-3,8-diazabicyclo[3.2.1]octane-8-carboxamide] | 12000 nM | 120 nM
O=C(Nc1cccc(Cl)c1)N1C2CCC1CN(Cc1c(-c3ccc(Cl)cc3)nc3ncccn13)C2 [Example 89, N-(3-chlorophenyl)-3-{[2-(4-chlorophenyl)imidazo[1,2-a]pyrimidin-3-yl]methyl}-3,8-diazabicyclo[3.2.1]octane-8-carboxamide] | 30000 nM | 850 nM
CCN(C(=O)N1C2CCC1CN(Cc1c(-c3ccc(Cl)cc3)nc3ncccn13)C2)c1ccccc1 [Example 114, 3-{[2-(4-chlorophenyl)imidazo[1,2-a]pyrimidin-3-yl]methyl}-N-ethyl-N-phenyl-3,8-diazabicyclo[3.2.1]octane-8-carboxamide] | 6700 nM | 140 nM
O=C(N1CCSCC1)N1C2CCC1CN(Cc1c(-c3ccc(Cl)cc3)nc3ncccn13)C2 [Example 122, (3-{[2-(4-Chlorophenyl)imidazo[1,2-a]pyrimidin-3-yl]methyl}-3,8-diazabicyclo[3.2.1]oct-8-yl)(thiomorpholin-4-yl)methanone] | 5000 nM | 120 nM
COc1ccc(F)c(C(=O)N2C3CCC2CN(Cc2c(-c4ccc(C5CC5)cc4)nc4ncccn24)C3)n1 [Example 135, (3-{[2-(4-cyclopropylphenyl)imidazo[1,2a]pyrimidin-3-yl]methyl}-3,8-diazabicyclo[3.2.1]octan-8-yl)(3-fluoro-6methoxypyridin-2-yl)methanone] | 420 nM | 34 nM
O=C(N1CCOCC1)N1C2CCC1CN(Cc1c(-c3ccc(Cl)cc3)nc3ncccn13)C2 [Example 110, (3-{[2-(4-chlorophenyl)imidazo[1,2-a]pyrimidin-3-yl]methyl}-3,8-diazabicyclo[3.2.1]oct-8-yl)(morpholin-4-yl)methanone] | 13000 nM | 230 nM
O=C(c1nc(C(F)(F)F)cs1)N1C2CCC1CN(Cc1c(-c3ccc(Cl)cc3)nc3ncccn13)C2 [Example 60] | 670 nM | 430 nM

Structure (SMILES) | IC50 [1] | IC50 [2]
CSc1cccc(C(=O)N2C3COCC2CN(Cc2c(-c4ccc(Cl)cc4)nc4ncccn24)C3)n1 [Example 16, (7-{[2-(4-Chlorophenyl)imidazo[1,2-a]pyrimidin-3-yl]methyl}-3-oxa-7,9-diazabicyclo[3.3.1]non-9-yl)[6-(methylsulfanyl)pyridin-2-yl]methanone] | 670 nM | 12 nM
COc1cccc(C(=O)N2CC3CCC2CN3Cc2c(-c3ccc(C(C)C)cc3)nc3ncccn23)n1 (centres unmarked) [Example 73] | 9100 nM | 81 nM
CCOc1ccc(N(C)C(=O)N2C3CCC2CN(Cc2c(-c4ccc(Cl)cc4)nc4ncccn24)C3)cc1 [Example 120, 3-{[2-(4-chlorophenyl)imidazo[1,2-a]pyrimidin-3-yl]methyl}-N-(4-ethoxyphenyl)-N-methyl-3,8-diazabicyclo[3.2.1]octane-8-carboxamide] | 15000 nM | 230 nM
O=C(C1CCCC1)N1C2CCC1CN(Cc1c(-c3ccc(Br)cc3)nc3ncccn13)C2 [Example 84] | 93 nM | 4.6 nM
CC(C)c1ccc(-c2nc3ncccn3c2CN2CC3CCC2CN3C(=O)OC(C)(C)C)cc1 (racemic) [Example 7, tert-Butyl 5-{[2-(4-isopropylphenyl)imidazo[1,2-a]pyrimidine-3-yl]methyl}-2,5-diazabicyclo[2.2.2]octane-2-carboxylate] | 8600 nM | 570 nM
CCN(C(=O)N1C2CCC1CN(Cc1c(-c3ccc(Cl)cc3)nc3ncccn13)C2)C1CCCCC1 [Example 112, 3-{[2-(4-chlorophenyl)imidazo[1,2-a]pyrimidin-3-yl]methyl}-N-cyclohexyl-N-ethyl-3,8-diazabicyclo[3.2.1]octane-8-carboxamide] | 15000 nM | 130 nM
COc1cccc(C(=O)N2C3CCC2CN(Cc2c(-c4ccc(C5CC5)cc4)nc4ncccn24)C3)n1 [Example 137, (3-{[2-(4-cyclopropylphenyl)imidazo[1,2-a]pyrimidin-3-yl]methyl}-3,8-diazabicyclo[3.2.1]octan-8-yl)(6-methoxypyridin-2-yl)methanone] | 1100 nM | 180 nM
O=C(Nc1ccc(Cl)cc1C(F)(F)F)N1C2CCC1CN(Cc1c(-c3ccc(Cl)cc3)nc3ncccn13)C2 [Example 106, 3-{[2-(4-chlorophenyl)imidazo[1,2-a]pyrimidin-3-yl]methyl}-N-[4-chloro-2-(trifluoromethyl)phenyl]-3,8-diazabicyclo[3.2.1]octane-8-carboxamide] | 30000 nM | 89 nM
COc1ccc(F)c(C(=O)N2C3CCC2CN(Cc2c(-c4ccc(Cl)cc4)nc4ncccn24)C3)n1 [Example 22, (3-{[2-(4-Chlorophenyl)imidazo[1,2-a]pyrimidin-3-yl]methyl}-3,8-diazabicyclo[3.2.1]oct-8-yl)(3-fluoro-6-methoxypyridin-2-yl)methanone] | 340 nM | 5.2 nM
COc1ccc(Cl)c(C(=O)N2CC3CCC2CN3Cc2c(-c3ccc(Cl)cc3)nc3ncccn23)n1 (single isomer, unassigned) [Example 23, (3-Chloro-6-methoxypyridin-2-yl)(5-{[2-(4-chlorophenyl)imidazo[1,2-a]pyrimidin-3-yl]methyl}-2,5-diazabicyclo[2.2.2]oct-2-yl)methanone] | 1600 nM | 100 nM
O=C(NC1CCCCC1)N1C2CCC1CN(Cc1c(-c3ccc(Cl)cc3)nc3ncccn13)C2 [Example 100, 3-{[2-(4-Chlorophenyl)imidazo[1,2-a]pyrimidin-3-yl]methyl}-N-cyclohexyl-3,8-diazabicyclo[3.2.1]octane-8-carboxamide] | 19000 nM | 630 nM
CC(C)c1nc(C(=O)N2C3CCC2CN(Cc2c(-c4ccc(Cl)cc4)nc4ncccn24)C3)cs1 [Example 54] | 860 nM | 13 nM
CN(C)C(=O)N1C2CCC1CN(Cc1c(-c3ccc(Cl)cc3)nc3ncccn13)C2 [Example 119, 3-{[2-(4-chlorophenyl)imidazo[1,2-a]pyrimidin-3-yl]methyl}-N,N-dimethyl-3,8-diazabicyclo[3.2.1]octane-8-carboxamide] | 5300 nM | 210 nM
O=C(Nc1cccc(F)c1)N1C2CCC1CN(Cc1c(-c3ccc(Cl)cc3)nc3ncccn13)C2 [Example 104, 3-{[2-(4-chlorophenyl)imidazo[1,2-a]pyrimidin-3-yl]methyl}-N-(3-fluorophenyl)-3,8-diazabicyclo[3.2.1]octane-8-carboxamide] | 19000 nM | 460 nM
CC(C)N(C(=O)N1C2CCC1CN(Cc1c(-c3ccc(Cl)cc3)nc3ncccn13)C2)C(C)C [Example 111, 3-{[2-(4-chlorophenyl)imidazo[1,2-a]pyrimidin-3-yl]methyl}-N,N-diisopropyl-3,8-diazabicyclo[3.2.1]octane-8-carboxamide] | 6300 nM | 290 nM
